TGI and GI50 data for 14 compounds are collected here from PubChem BioAssay (NCI).

Values joined by “and” are separate entries in the source; they are usually repeats but may differ in a detail not shown here. Equal values may be shown once.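 Interpolation was linear, between the two tested concentrations surrounding the appropriate level; five concentrations were tested over 48 hours in 96-well plates. Abbreviation: GI50, concentration required for 50% inhibition of growth. Definition used: TGI = concentration required for complete inhibition of growth.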 A value given as a limit tells only on which side of the number the result lay.

Some test systems named below: OVCAR-3 ovarian; CAKI-1 renal; MCF7 breast; HS 578T breast; SF-295 CNS; K-562 leukemia; NCI/ADR-RES ovarian; COLO 205 colon; MOLT-4 leukemia; NCI-H522 lung; HL-60(TB) leukemia.
Test in all cases: NCI-60 cell line screen, 48 h

With `CC1(C)C(CCO)CC1n1ccc(=O)[nH]c1=O` (stereo unspecified), the TGI was above 100 µM in the experiment with OVCAR-3 ovarian; above 100 µM in the experiment on CAKI-1 renal; above 100 µM with MCF7 breast; above 100 µM in the experiment with HS 578T breast; above 100 µM with SF-295 CNS; 72.4 µM in the experiment on K-562 leukemia. Moreover, the TGI with NCI/ADR-RES ovarian is above 100 µM.

For `CC(=O)NC1=C(NCCCl)C(=O)c2ccccc2C1=O`, the TGI was above 100 µM in the experiment with COLO 205 colon; 75.5 µM in the experiment on MOLT-4 leukemia; above 100 µM in the experiment on OVCAR-3 ovarian; above 100 µM with MCF7 breast; above 100 µM in the experiment on HS 578T breast; 59.3 µM in the experiment with NCI-H522 lung. In addition, the TGI with SF-295 CNS was above 100 µM; in the experiment with K-562 leukemia it was above 100 µM; in the experiment on NCI/ADR-RES ovarian it was 74 µM.

For the compound `O=C1C=C2CCC[C@H]3OC(=O)C[C@@]23CC1`, the TGI in the experiment with COLO 205 colon, in the experiment on HL-60(TB) leukemia, in the experiment with MOLT-4 leukemia, in the experiment with OVCAR-3 ovarian, in the experiment on CAKI-1 renal and with HS 578T breast was above 100 µM each time. In addition, the TGI in the experiment with NCI-H522 lung, in the experiment on SF-295 CNS, in the experiment with K-562 leukemia and in the experiment on NCI/ADR-RES ovarian was above 100 µM each time.

As to `Cc1ccnc2nc(N)ccc12`, the TGI in the experiment on COLO 205 colon, with HL-60(TB) leukemia, with MOLT-4 leukemia, in the experiment on CAKI-1 renal, in the experiment on HS 578T breast and in the experiment with NCI-H522 lung was above 100 µM each time. The TGI with SF-295 CNS, with K-562 leukemia and in the experiment with NCI/ADR-RES ovarian was above 100 µM throughout.

Regarding `O=C1CC(C(OCc2ccccc2)C(OCc2ccccc2)C(COCc2ccccc2)OCc2ccccc2)CC(=O)N1` (stereo unspecified), the TGI in the experiment on COLO 205 colon, with HL-60(TB) leukemia, in the experiment on MOLT-4 leukemia, in the experiment with MCF7 breast, in the experiment with HS 578T breast and with SF-295 CNS was above 100 µM each time. In addition, the TGI in the experiment with K-562 leukemia and in the experiment on NCI/ADR-RES ovarian was above 100 µM each time. Further, the GI50 in the experiment on MOLT-4 leukemia is > 100 µM and 37.7 µM; in the experiment on K-562 leukemia it was > 100 µM and 41 µM.

With `CN(C(=O)c1ccc2c(c1)sc1c(=O)n(C)c3ccccc3c12)c1ccccc1`, the TGI with COLO 205 colon, in the experiment with HL-60(TB) leukemia, in the experiment on MOLT-4 leukemia, with OVCAR-3 ovarian, in the experiment with CAKI-1 renal and in the experiment with MCF7 breast was above 100 µM throughout. Besides, the TGI in the experiment with NCI-H522 lung, in the experiment on SF-295 CNS, with K-562 leukemia and with NCI/ADR-RES ovarian was above 100 µM throughout.

Take `Cc1ccc(-c2nnc(CCCCCCCCc3nnc(-c4ccc(C)cc4O)n3N)n2N)c(O)c1`: the TGI in the experiment with COLO 205 colon, with MOLT-4 leukemia, in the experiment with OVCAR-3 ovarian, with CAKI-1 renal, in the experiment with MCF7 breast and with HS 578T breast was above 100 µM throughout. Further, the TGI in the experiment with NCI-H522 lung, in the experiment on SF-295 CNS and in the experiment with NCI/ADR-RES ovarian was above 100 µM in each case.

With `Nc1cccc(S(=O)(=O)Nc2nnc(S(N)(=O)=O)s2)c1`, the TGI with COLO 205 colon, in the experiment on HL-60(TB) leukemia, in the experiment on MOLT-4 leukemia, with OVCAR-3 ovarian, in the experiment with CAKI-1 renal and with MCF7 breast was above 100 µM each time. Also, the TGI in the experiment on NCI-H522 lung, with SF-295 CNS, in the experiment on K-562 leukemia and with NCI/ADR-RES ovarian was above 100 µM each time.

`COc1ccccc1N=Nc1c(O)c(S(=O)(=O)O)cc2cc(S(=O)(=O)O)ccc12`: the TGI with COLO 205 colon, in the experiment on MOLT-4 leukemia, with OVCAR-3 ovarian, in the experiment on CAKI-1 renal, in the experiment on HS 578T breast and in the experiment on NCI-H522 lung was above 100 µM throughout. Also, the TGI in the experiment on SF-295 CNS, in the experiment on K-562 leukemia and in the experiment with NCI/ADR-RES ovarian was above 100 µM in each case.

With `O=C1CC(C(CC(=O)c2ccccc2)c2ccccc2)C(=O)c2ccccc2N1` (stereo unspecified), the TGI with COLO 205 colon was above 100 µM; in the experiment with HL-60(TB) leukemia it was above 100 µM; in the experiment on MOLT-4 leukemia, 61.2 µM; in the experiment on OVCAR-3 ovarian it was above 100 µM; in the experiment on MCF7 breast it was 80.1 µM; in the experiment with HS 578T breast it was above 100 µM. Further, the TGI is above 100 µM with SF-295 CNS, above 100 µM in the experiment with K-562 leukemia and 75.5 µM in the experiment with NCI/ADR-RES ovarian.

Turning to `CO[C@H]1O[C@@H]2CO[C@@H](c3ccccc3)O[C@H]2[C@@H]2C/C=C\CCC[C@@]12O`, the TGI is 33.6 µM in the experiment with COLO 205 colon; 51.2 µM in the experiment on HL-60(TB) leukemia; 42.2 µM with MOLT-4 leukemia; 30.5 µM in the experiment with OVCAR-3 ovarian; above 100 µM in the experiment on CAKI-1 renal; 44.9 µM in the experiment with MCF7 breast. The TGI in the experiment on NCI-H522 lung was determined as 43.4 µM; in the experiment with SF-295 CNS, 42 µM; in the experiment with K-562 leukemia, 51.1 µM; with NCI/ADR-RES ovarian, 88.3 µM.

In the case of `O=[N+]([O-])c1ccc2oc(=Nc3ccccc3)c(Nc3ccccc3)nc2c1`, the TGI is above 100 µM in the experiment on COLO 205 colon; above 100 µM in the experiment on HL-60(TB) leukemia; above 100 µM in the experiment on MOLT-4 leukemia; above 100 µM in the experiment on CAKI-1 renal; above 100 µM with HS 578T breast; 67.2 µM in the experiment on NCI-H522 lung. The TGI in the experiment with SF-295 CNS, with K-562 leukemia and with NCI/ADR-RES ovarian was above 100 µM each time.

Consider `O=S(=O)(c1ccc(-c2nnc(-c3ccc(F)cc3)o2)cc1)c1ccc(-c2nnc(-c3ccc(F)cc3)o2)cc1`, for which the TGI in the experiment on COLO 205 colon, with HL-60(TB) leukemia, in the experiment with MOLT-4 leukemia, with OVCAR-3 ovarian, in the experiment on CAKI-1 renal and in the experiment with MCF7 breast was above 100 µM throughout. Besides, the TGI in the experiment with NCI-H522 lung, with SF-295 CNS, with K-562 leukemia and with NCI/ADR-RES ovarian was above 100 µM in each case.

For `CC(=O)OC12c3ccccc3C(c3ccccc31)C1C(=O)N(c3ccccn3)C(=O)C12` (stereo unspecified), the TGI with COLO 205 colon, in the experiment on HL-60(TB) leukemia, with MOLT-4 leukemia, in the experiment on OVCAR-3 ovarian, with CAKI-1 renal and in the experiment with MCF7 breast was above 100 µM each time. For the same compound, the TGI in the experiment on HS 578T breast, in the experiment with SF-295 CNS, in the experiment with K-562 leukemia and with NCI/ADR-RES ovarian was above 100 µM throughout.
